According to patent publication US6413967B1, “Inhibition of novel calcium entry pathway in electrically non-excitable cells acting as an anti-proliferative therapy” (The University of Virginia Patents Foundation, priority 1995, dated 2002):

What was measured:
[1] = test system: MDA-468 human breast cancer cells; experiment: MDA-468 cell proliferation, tetrazolium dye; assay type: cell-based; set-up: key to MDA PROLIF: NE: no effect; ND: not determined; details: human breast cancer cell proliferation, 48 hours
Description: (§1) The effect of various drugs on the proliferation of Jurkat T cells, MDA-468 human breast cancer cells and PC3 human prostate cancer cells was determined by incubating the cells with the indicated concentrations of drug for 48 hours. The number of viable cells remaining at the end of the incubation period was evaluated using the procedure outlined in Example 4.
(§2) Cells are plated in triplicate in a 96-well flat-bottomed plate (Jurkat: 5e4 cells/well in RPMI-1640 plus 5% fbs; MDA468: 2.5e4 per well in DMEM plus 5% fbs and 11 μg/ml insulin) in the absence (control) or presence of drug at 3, 10, 30, and 100 μM. An additional control of 100 μM drug in RPMI-1640 plus 5% fbs or DMEM plus 5% fbs and 11 μg/Ml insulin with no cells is included with each run to control for possible drug interactions with the dye. The plate is then placed in a 5% CO2 37° C. incubator for 44 to 48 hours. 20 μl of dye solution containing a tetrazolium dye (3-(4,5-dimethylthiazol-2-yl)-5-(3-carboxymethoxyphenyl)-2-(4-sulfophenyl)-2H-tetrazolium, Owen's reagent) plus coupling reagent (phenazine methosulfate) is added to each well, the plate is returned to the incubator, and the absorbance at 490 nm is read using an ELISA plate reader 3 to 4 h (Jurkat cells) or 2 to 3 h (MDA-468 cells) later. All data are presented as percent of control (no drug addition). With this protocol, it is possible to determine the effect of 5 drugs at 4 concentrations in a single 96-well plate as outlined below: […]

[2] = test system: [Ca^2+]i in Jurkat T cells; experiment: receptor-stimulated Ca2+ influx in Jurkat T cells (anti-CD3 mAb OKT3); assay type: cell-based, human; set-up: key to T cell [Ca^2+]i (pre) / T cell [Ca^2+]i: NE: no effect; ND: not determined; details: 10 or 30 μM drug; for T cell [Ca^2+]i: effect the same post- and pre- T cell receptor stimulation; for T cell [Ca^2+]i (post): drug added post T cell receptor stimulation; for T cell [Ca^2+]i (pre): drug added pre T cell receptor stimulation
Description: Initially, all drugs are screened using Jurkat T cells incubated with indo-1/AM as outlined below. In the event that there is an effect of the drug on the maximum [Ca^2+]i reached following treatment of the cells with the anti-CD3 mAb […], the drug is evaluated for any effects on the spectral characteristics of indo-1 as outlined in Haverstick and Gray, Mol. Biol. Cell (1993) 4:173. If there is an effect of the drug on the spectral characteristics of indo-1 , the drug is further examined for spectral effects on the combination of fura-red and fluo-3. If there is no effect of the drug on the fura-red/fluo-3 combination, the drug is examined for effects on the maximum [Ca^2+]i reached following OKT3 treatment of cells incubated with 5 μM fura-red and […] as outlined below.
Jurkat cells are incubated in RPMI-1640 plus 5% fbs in the presence of the acetoxymethyl ester of either indo-1 (1 μM) or the combination of fura-red (5 μM) with fluo-3 (1 μM) for one hour at 37° C. Cells are washed three times in buffer A [[…] 4-(2-hydroxyethyl)-1-piperazine ethanesulfonic acid (HEPES), pH 7.4, 3 MM KCl, 1 mM MgCl2, 1 mM CaCl2, 140 mM NaCl, 0.1% glucose] containing 1% fbs and suspended to a final concentration of 1×10^6/ml. Cells are then placed in the 37° C. jacketed cell holder of the SLM 8000C. Antigen receptor engagement is mimicked by the addition of the anti-CD3 monoclonal antibody OKT3 (Gray et al, J. Exp. Med. (1988) 167:1963; Gray et al, J. Immunol. 142:1631). The effect of drug added prior to receptor stimulation or at the plateau phase of Ca^2+ entry is determined as follows:
Prior drug: 10 or 30 μM drug @ 30 seconds, 1 μg/ml OKT3 at 90 seconds
Post drug: 1 μg/ml OKT3 at 30 second, 10 or 30 μM drug @ 120 seconds

[3] = test system: [Ca^2+]i in MDA-468 cells; experiment: EGF receptor-stimulated Ca2+ influx in MDA-468 cells; assay type: cell-based, human; set-up: key: NE: no effect; ND: not determined; details: for MDA [CA^2+]i: effect the same post- and pre- EGF receptor stimulation
Description: MDA468 cells are incubated with either indo-1 or the combination of fura-red/fluo-3 for 1 hour while still adherent in the maintenance flask in DMEM plus 5% fbs and 1 μg/ml insulin. Cells are removed by gentle scraping and washed three times in buffer A containing 1% charcoal stripped fbs (Nelson et al, Br. J. Cancer (1991) 63:933). The cells are then suspended to a final concentration of 1e6/ml and used as above in the SLM. For the human breast cancer cells, Ca^2+ entry is stimulated by the addition of 25 ng/ml EGF, rather than the antibody used above.

Jurkat T cells = experiment: Jurkat cell proliferation, tetrazolium dye; assay type: cell-based, human; set-up: key to T cell PROLIF: NE: no effect; ND: not determined; details: 48 hours
Description: as §1, §2

| Structure (SMILES) | MDA PROLIF [1] | T cell [Ca^2+]i [2] | MDA [CA^2+]i [3] | T cell PROLIF (Jurkat T cells) | T cell [Ca^2+]i (post) [2] | T cell [Ca^2+]i (pre) [2] | MDA [CA^2+]i (pre) ([3]; drug added pre EGF receptor stimulation) |
| --- | --- | --- | --- | --- | --- | --- | --- |
| COc1cc(CCO)ccc1O [3-methoxy, 4-hydroxyphenylethanol] | NE | NE |  |  |  |  |  |
| COc1cc(C(O)C(O)CO)ccc1O (stereo not shown) [3-methoxy, 4-hydroxyphenylglycerol] | NE | NE |  |  |  |  |  |
| Nc1cc(-c2ccncc2)c[nH]c1=O [amrinone] | NE | NE |  |  |  |  |  |
| CC(C)COCC(CN(Cc1ccccc1)c1ccccc1)N1CCCC1 (stereo not shown) [bepridil] | ↓ |  | ↑ | ↓ | ↓ (post) | NE (pre) |  |
| CC(NC(C)(C)C)C(=O)c1cccc(Cl)c1 (stereo not shown) [bupropion] | NE | NE |  | NE |  |  |  |
| CN1CCN(C(c2ccccc2)c2ccc(Cl)cc2)CC1 (stereo not shown) [chlorcyclizine] | ↓ | NE | ↑ |  |  |  |  |
| C(=C\c1ccccc1)/CN1CCN(C(c2ccccc2)c2ccccc2)CC1 [cinnarizine] | NE | ↓ | NE | ↓ |  |  |  |
| COc1cc(/C=C/C(=O)CC(=O)/C=C/c2ccc(O)c(OC)c2)ccc1O [curcumin] | NE |  |  | ↓ |  |  |  |
| CN1CCN(C(c2ccccc2)c2ccccc2)CC1 [cyclizine] | NE | NE |  |  |  |  |  |
| O=C1CN(/N=C/c2ccc(-c3ccc([N+](=O)[O-])cc3)o2)C(=O)N1 [datrolene] | NE | NE | NE |  |  |  |  |
| CCN(CC)C(=O)N1CCN(C)CC1 [diethylcarbamazine] | NE | NE | NE | NE |  |  |  |
| CC(NCCC(c1ccccc1)c1ccccc1)c1ccccc1 (stereo not shown) [fendiline] | ↓ | ↓ | ↑ | ↓ |  |  |  |
| Fc1ccc(C(c2ccc(F)cc2)N2CCN(C/C=C/c3ccccc3)CC2)cc1 [flunarizine] | NE | ↓ | NE | ↓ |  |  |  |
| OCCN1CCN(CCCN2c3ccccc3Sc3ccc(C(F)(F)F)cc32)CC1 [fluphenazine] | ↓ | ↓ | ↓ | ↓ |  |  |  |
| OCCOCCN1CCN(C(c2ccccc2)c2ccc(Cl)cc2)CC1 (stereo not shown) [hydroxyzine] | NE | NE |  | NE |  |  |  |
| COC(=O)C1=C(C)NC(C)=C(C(=O)OC(C)C)C1c1cccc2nonc12 (stereo not shown) [isradipine] | NE | ↓ |  | NE |  |  |  |
| Cc1cccc(C)c1NC(=O)CN1CCN(CCCC(c2ccc(F)cc2)c2ccc(F)cc2)CC1 [lidoflazine] | (↓) | ↓ |  | ↓ |  |  |  |
| Cc1cccc(CN2CCN(C(c3ccccc3)c3ccc(Cl)cc3)CC2)c1 (stereo not shown) [meclizine] | NE |  |  | (↓) | ↓ (post) | NE (pre) |  |
| CN1CCN2c3ccccc3Cc3ccccc3C2C1 (stereo not shown) [mianserin] | NE | NE |  | NE |  |  |  |
| COC(=O)C1=C(C)NC(C)=C(C(=O)OCCN(C)Cc2ccccc2)C1c1cccc([N+](=O)[O-])c1 (stereo not shown) [nicardipine] |  |  | NE |  |  |  |  |
| O=C(O)c1cccnc1Nc1cccc(C(F)(F)F)c1 [niflumic acid] | NE |  |  | (↓) | ↓ (post) | NE (pre) |  |
| C1CCC(C(CC2CCCCN2)C2CCCCC2)CC1 (stereo not shown) [perhexiline] | ↓ |  | ↑ | ↓ | ↑ (post) | ↓(pre) |  |
| CCn1cc(C(=O)O)c(=O)c2cnc(N3CCNCC3)nc21 [pipenidic acid] | NE | NE |  | NE |  |  |  |
| c1ccc2nc(N3CCNCC3)ccc2c1 [quipazine] | NE | NE |  |  |  |  |  |
| COc1ccc2cc1Oc1ccc(cc1)C[C@H]1c3cc(c(OC)cc3CCN1C)Oc1c(OC)c(OC)cc3c1[C@H](C2)N(C)CC3 [tetrandrine, 6,6′,7,12-tetramethoxy-2,2′-dimethyl-baman] |  |  |  |  |  | NE (pre) | NE (pre) |
| Cc1nc(C)c(C)nc1C [tetranethylpyrazine] | NE | NE |  |  |  |  |  |
| O=c1n(CCCN2CCN(c3cccc(Cl)c3)CC2)nc2ccccn12 [trazodone] | NE | NE |  | NE |  |  |  |
